# According to patent US20240009256A1, “USE OF PROBIOTIC BACTERIUM-DERIVED EXTRACELLULAR MICRO- AND/OR NANOPARTICLES FOR THE TREATMENT OF DISEASE” (University of Louisville Research Foundation, Inc., priority 2020, published 2024):
# What was measured:
# EGFR = target: T1, EGFR (Mus musculus, UniProt Q01279); experiment: LDNPs-mediated EGFR activation in LPS-treated Raw264.7 cells with AG1478; assay type: cell-based; conditions: AG1478 150 nM
# T1 construct: endogenous in cells; host or cells: Raw264.7
# T1 sequence (Q01279 25-1210): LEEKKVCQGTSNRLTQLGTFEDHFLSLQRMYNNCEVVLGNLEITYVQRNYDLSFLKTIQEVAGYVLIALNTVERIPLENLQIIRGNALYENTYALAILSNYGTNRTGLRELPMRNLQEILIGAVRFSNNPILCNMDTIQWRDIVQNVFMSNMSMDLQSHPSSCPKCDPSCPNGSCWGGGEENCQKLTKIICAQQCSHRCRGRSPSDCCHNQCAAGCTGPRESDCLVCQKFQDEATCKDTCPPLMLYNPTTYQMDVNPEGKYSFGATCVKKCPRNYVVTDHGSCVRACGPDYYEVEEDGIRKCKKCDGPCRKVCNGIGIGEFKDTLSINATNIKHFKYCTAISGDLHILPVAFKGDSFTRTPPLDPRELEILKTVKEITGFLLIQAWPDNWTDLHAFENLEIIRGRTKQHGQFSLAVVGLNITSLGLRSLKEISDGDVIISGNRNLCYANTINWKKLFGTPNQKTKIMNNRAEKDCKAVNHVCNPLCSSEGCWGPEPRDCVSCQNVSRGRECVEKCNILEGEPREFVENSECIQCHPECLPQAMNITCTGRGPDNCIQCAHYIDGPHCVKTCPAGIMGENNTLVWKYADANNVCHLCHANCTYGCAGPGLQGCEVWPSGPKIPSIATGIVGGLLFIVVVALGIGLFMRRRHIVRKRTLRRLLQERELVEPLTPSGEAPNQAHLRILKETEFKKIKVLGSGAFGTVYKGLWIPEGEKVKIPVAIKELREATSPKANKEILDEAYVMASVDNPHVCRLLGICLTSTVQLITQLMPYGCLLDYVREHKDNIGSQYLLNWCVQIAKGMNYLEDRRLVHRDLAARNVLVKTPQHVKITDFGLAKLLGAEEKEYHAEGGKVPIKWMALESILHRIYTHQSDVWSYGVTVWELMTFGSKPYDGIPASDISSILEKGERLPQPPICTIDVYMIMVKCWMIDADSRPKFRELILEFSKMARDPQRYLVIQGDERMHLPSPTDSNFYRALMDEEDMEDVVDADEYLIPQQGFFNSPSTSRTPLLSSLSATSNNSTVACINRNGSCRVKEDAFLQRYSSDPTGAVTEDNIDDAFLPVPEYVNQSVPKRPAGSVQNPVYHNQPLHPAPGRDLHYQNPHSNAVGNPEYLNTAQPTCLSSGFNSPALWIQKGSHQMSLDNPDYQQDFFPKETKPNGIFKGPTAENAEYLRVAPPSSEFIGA
# Procedure: (§1) Real-time quantitative PCR Total mRNA was extracted from mouse liver and intestine tissues using Trizol reagent (Life Technologies, Carlsbad, California, United States of America) according to the manufacturer's instruction and reverse-transcribed using cDNA Supermix (QuantaBio, Beverly, Massachusetts, United States of America). 18S and Gapdh were used as internal controls. Real-time qPCR was performed on an ABI 7300 fast real-time PCR thermocycler, where SYBR green PCR Master Mix (Applied Biosystems, Foster City, California, United States of America) was used. The relative gene expression was determined by the ΔΔCT method.
# Raw264.7 cells were pretreated with LDNPs (0.2 μg/ml) or the EGFR inhibitor AG1478 (150 nM) for 20 hours and then treated with LPS for 4 hours to induce inflammation response as depicted in the top panel of the FIG. 13A. The bottom panel of FIG. 13A is a representative western blot of phosphorylated EGFR (P-EGFR Tyr 1068), Total-EGFR, PI3K, phosphorylated Akt (P-Akt), total-Akt, phosphorylated NF-κB (P-NF-κB), and β-actin showing that expression of several of these proteins were modulated by LDNP treatment.
# AhR = experiment: ALD mouse model with AhR inhibitor CH223191 co-administration; assay type: in vivo
# Procedure: Animals and treatments. C57BL/6J mice (6-8 weeks of age) from Jackson Laboratory (Bar Harbor, Maine, United States of America) were maintained at 22° C. with a 12 hour light/dark cycle and initially had free access to a normal chow diet and tap water. Mice were then fed the Lieber DeCarli Diet containing 5% alcohol (w/v) (Alcohol-fed, AF) or isocaloric maltose dextrin (Pair-fed, PF). For the AF groups, mice were initially fed the control Lieber-DeCarli liquid diet (Bio-Serve, Flemington, New Jersey, United States of America) for 5 days to acclimate to the liquid diet. […] Mice in PF group were fed isocaloric maltose dextrin in substitution for alcohol in the liquid diet. On experimental Day 10, a bolus of EtOH (5 g/kg body weight) was given to AF mice by gavage 9 hours before harvesting, while mice in PF groups received a gavage of isocaloric maltose dextrin (10d+1b model). LDNPs were administered to mice in the last 3 days by daily gavage of 200 μL of LDNPs (50 μg protein content). AhR inhibitor, CH223191 (Sigma-Aldrich, St. Louis, Missouri, United States of America) was gavaged at […] in last three days. Control mice were gavaged with an equal volume of control vehicle (PBS).
# Whether the beneficial effects of LDNPs in ALD were mediated by the intestinal AhR pathway was tested by administrating the AhR inhibitor CH223191 to alcohol-fed mice. […] Importantly, the suppressive effect on hepatic fat by LDNP treatment was blunted when CH223191 was co-administered.
# [1] = test system: lamina propria lymphocytes (LPLs); experiment: AhR signaling in lamina propria lymphocytes; assay type: cell-based, mouse; conditions: AhR inhibitor 10 μM
# Caco-2 cells = experiment: Tight junction, Cyp1a1 and Nrf2 expression in Caco-2 cells; assay type: cell-based, human
# Procedure: as §1
# Western Blotting. Protein was extracted from frozen intestine tissues. Western blotting was performed as described in (Shao et al. (2018) Intestinal HIF-1α deletion exacerbates alcoholic liver disease by inducing intestinal dysbiosis and barrier dysfunction. Journal of Hepatology 69:886-895). Antibodies used for western blotting for proteins ZO-1, Occludin, and Claudin-1 were from Cell Signaling (Danvers, Massachusetts, United States of America). Nrf-2, β-actin and Histone H3 antibodies were purchased from Abcam (Cambridge, Massachusetts, United States of America). For western blotting in Caco-2 cell derived NPs and LDNPs, CD 63 antibody from System Bioscience (Palo Alto, California, United States of America) was used.
# Cell culture. Mouse macrophages RAW 264.7 and the human intestinal epithelial cells Caco-2 were maintained in DMEM-high glucose and EMEM-high glucose (Corning; 10-009CV) respectively. The medium was supplemented with 10% fetal bovine serum, 1X penicillin-streptomycin solution (100U/ml penicillin, and 100 μg/ml streptomycin; Sigma Aldrich) in a humidified atmosphere (5% CO2, 95% air, 37° C.). Peritoneal macrophages and bone marrow-derived macrophages (BMDM) were isolated from mice as described in (Ying et al. (2013) Investigation of Macrophage Polarization Using Bone Marrow Derived Macrophages. Journal of Visualized Experiments 76:50323.). Isolated BMDM were then cultured in modified DMEM medium with macrophage colony-stimulating factor (M-CSF), which is a cytokine that directs cell differentiation. Cells were utilized for experimentation at 70-80% confluence. RAW264.7, peritoneal macrophages (PMs) and bone marrow-derived macrophages (BMDMs) were pretreated with LDNPs (0.2 μg/ml for 20 hours) and then treated with E. coli-derived lipopolysaccharides (LPS; O55:B5; Sigma) at 100 ng/mL concentration for 4 hours. Caco-2 cells at 70-80% confluence were treated with LDNPs (0.2 μg/ml), I3A (0.1 mM), the AhR inhibitor, CH-223191 (10 μM) or Nrf2 inhibitor, ML385 (5 μM) for 24 hours. Lamina propria lymphocytes (LPLs) were treated with LDNPs (0.2 μg/ml), I3A (0.1 mM) or the AhR inhibitor, CH223191 (10 μM) for 24 hours.
# Measurement of Cvp1A1 enzyme activity in vitro. Caco-2 cells (50,000 cells/well) were plated in a 48-well plate. Cells were then treated with LDNPs (0.2 μg/ml) or Indole-3-aldehyde (I3A, 0.1 mM) for 24 hours. After treatment, cells were washed to remove any residual LDNPs or I3A, then the wells were replenished with fresh medium containing Cyp1A1 substrate as per the protocol provided with a P450-GLO™ CYP1A1 Assay System brand kit (Promega Corporation, Madison, Wisconsin, United States of America) for 3 hours. After incubation, 25 μl of culture medium was removed from each well and transferred to a 96-well white opaque plate and 25 μl of luciferin detection reagent was added to initiate the luminescence reaction and plate was incubated at room temperature for 20 minutes. After incubation, luminescence was recorded using a luminometer. The data were reported as foldchange over vehicle treatment.
# [2] = alcohol-fed, CH223191 co-administered
# [3] = alcohol-fed, co-fed with CH223191
# [4] = Caco-2, LDNPs 0.2 μg/ml, I3A 0.1 mM, 24 hours
compound,measurement,setting,value
COc1cc2ncnc(Nc3cccc(Cl)c3)c2cc1OC [AG1478],LDNP-mediated reduction of IL-1β mRNA,EGFR,inhibited
same,LDNP-mediated reduction of TNF-α mRNA,EGFR,inhibited
Cc1ccccc1N=Nc1ccc(NC(=O)c2ccnn2C)c(C)c1 [CH223191],ileum Nqo1 mRNA expression,"AhR; AF mice, agent alone",reduced
same,ileum Nrf2 mRNA expression,"AhR; AF mice, agent alone",reduced
same,LDNP-induced increase of IL-22 protein,AhR; [2],completely inhibited
same,LDNP-induced increase of Il22 mRNA,AhR; [2],completely inhibited
same,suppressive effect of LDNP treatment on hepatic fat,AhR; [2],blunted
same,upregulation of Reg3g by LDNPs,AhR; [2],blocked
same,ileum Cyp1a1 mRNA expression,"AhR; alcohol-fed, LDNPs gavaged with the inhibitor",no change
same,IL-22 protein expression,"AhR; alcohol-fed, agent alone",reduced
same,hepatic bacteria load,"AhR; alcohol-fed, agent alone",significantly increased
same,hepatic fat accumulation,"AhR; alcohol-fed, agent alone",significantly increased
same,ileum Cyp1a1 mRNA expression,"AhR; alcohol-fed, agent alone",reduced
same,ileum Il22 mRNA expression,"AhR; alcohol-fed, agent alone",reduced
same,ileum Reg3g mRNA expression,"AhR; alcohol-fed, agent alone",reduced
same,serum ALT,"AhR; alcohol-fed, agent alone",slightly increased
same,serum AST,"AhR; alcohol-fed, agent alone",slightly increased
same,effects of LDNPs on serum ALT,AhR; [3],blocked
same,effects of LDNPs on serum AST,AhR; [3],blocked
same,effect of LDNPs on hepatic bacteria load,"AhR; alcohol-fed, inhibitor co-administered",blocked
same,LDNPs-induced Cyp1a1 mRNA expression,[1],completely inhibited
same,LDNPs-induced Il22 mRNA expression,[1],completely inhibited
same,LDNPs-induced upregulation of IL-22 protein,[1],completely inhibited
same,LDNPs-induced Cyp1a1 mRNA expression,[1]; listed as CH229131,blocked
same,LDNPs-induced Il22 mRNA expression,[1]; listed as CH229131,blocked
same,I3A-induced Cyp1a1 activity,Caco-2 cells,blocked
same,I3A-induced Cyp1a1 mRNA expression,Caco-2 cells,blocked
same,LDNP-induced Cyp1a1 activity,Caco-2 cells,blocked
same,LDNP-induced Cyp1a1 mRNA expression,Caco-2 cells,blocked
same,LDNP-induced Nrf2 mRNA expression,Caco-2 cells,blocked
same,LDNP-induced Nrf2 protein expression,Caco-2 cells,blocked
"O=Cc1c[nH]c2ccccc12 [I3A, indole-3-aldehyde]",protein expression of tight junction proteins,"Caco-2 cells; Caco-2, LDNPs 0.2 μg/ml, I3A 0.1 mM",increased
same,Cyp1a1 activity,Caco-2 cells; [4],markedly increased
same,Cyp1a1 mRNA expression,Caco-2 cells; [4],markedly increased
Cc1ccccc1C(=O)N1CCc2cc(-c3nc(NC(=O)Cc4ccc5c(c4)OCO5)sc3C)ccc21 [ML385],LDNP-induced Cyp1a1 activity,Caco-2 cells,not
same,LDNP-induced Cyp1a1 mRNA expression,Caco-2 cells,blocked
same,LDNP-induced Nrf2 mRNA expression,Caco-2 cells,completely inhibited
same,LDNP-induced Nrf2 protein expression,Caco-2 cells,completely inhibited
